# Experimental data published in patent US20250319053A1, “INHIBITORS OF THE PEPTIDYL-PROLYL CIS/TRANS ISOMERASE (PIN1), COMBINATIONS AND USES THEREOF” (DANA-FARBER CANCER INSTITUTE, INC., priority 2021, published 2025).
# Assays:
# [1] = system: splenocytes; experiment: Immune profiling of splenocytes by flow cytometry; type: in vivo, mouse; conditions: 40 mg/kg i.p. daily for 5 weeks
# Description: After filtered, cell lysate was collected. To assess cell surface expressions, cells were harvested by non-enzymatic cell dissociation solution, and resuspend in blocking solution (Cell Staining Buffer, BioLegend). Cells were incubated with following antibodies; […] For FOXP3 staining, cells were fixed and permeabilized using Foxp3/Transcription Factor Staining Buffer Set (00-5523, eBioscience), and incubated with FOXP3-FITC (11-5773-82, Invitrogen) for 30 mins at RT. For Granzyme B staining, cells were fixed and permeabilized using Intracellular Fixation & Permeabilization Kit (88-8824-00, eBioscience), and incubated with Granzyme B-FITC (515403, BioLegend) for 30 mins at RT. All antibodies were diluted according to manufacture instruction. Cells were analyzed using CytoFLEX flow cytometer and CytExpert software (Beckman Coulter, IN, USA). Table 2 is a table of immune profiling of splenocytes from Pin1i−2 treated non-tumor-bearing B6 mice. See also FIG. 1A-FIG. 1G, FIG. 8A-FIG. 8O, and FIG. 9A-9L. WT B6 mice (non-tumor-bearing mice) were treated with vehicle or Pin1i−2 (40 mg/kg, i.p., daily) for 5 weeks, followed by examining the immune profile of splenocytes using flow cytometry (n=5).
# [2] = system: primary human CAFs (CAF1 and CAF2); experiment: Cell proliferation assay (CellTiter-Glo) in CAFs; type: cell-based; conditions: 72 hrs
# Description: Cells were seeded at a density of 5000 cells (PDAC1 and PDAC2), or 3000 cells (CAF1 and CAF2) per well in 96-well flat-bottomed plates and incubated for 24 h in culture medium. […] Control cells received dimethyl sulfoxide (DMSO) at a concentration equal to that of drug-treated cells for 72 hours. The cell viability was determined by CellTiter-Glo® 2.0 Assay (Promega) following the manufacturer's instructions.
smiles,measurement,setting,value
"CC(C)(C)CN(C(=O)CCl)C1CCS(=O)(=O)C1 (stereo not shown) [Pin1i−2, sulfopin]",CD3−CD11b+ Myeloid cells,[1]; n=5,6.79 % of CD45+ cell
same,CD8a+ T-cell,[1]; n=5,14.30 % of CD45+ cell
same,CD11b+Ly6G+ Myeloid Cells,[1]; n=5,1.71 % of CD45+ cell
same,CD11c+MHC-II+ DCs,[1]; n=5,1.48 % of CD45+ cell
same,CD45+CD3+ Cells,[1]; n=5,27.77 % of CD45+ cell
same,F4/80+ Macrophages,[1]; n=5,3.54 % of CD45+ cell
same,CTLA4,[1]; listed under CD8a+ T-cell,76.08 MFI
same,Lag3,[1]; listed under CD8a+ T-cell,449.84 MFI
same,MHC-ClassI,[1]; listed under CD8a+ T-cell,11456.80 MFI
same,PD-1,[1]; listed under CD8a+ T-cell,67.90 MFI
same,PD-L1,[1]; listed under CD11b+Ly6G+ Myeloid Cells,12447.46 MFI
same,PD-L1,[1]; listed under CD11c+MHC-II+ DCs,89012.88 MFI
same,CAF proliferation (cell growth),[2],suppression of CAF proliferation
